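96-well plates; 48 h exposure; 5 concentrations. Endpoints by linear interpolation between flanking doses. Not reached: highest tested concentration assigned. TGI: concentration producing complete growth inhibition.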
What was measured:
Assay in all cases: NCI anticancer screen, dose series, 48 h
[1] = system: 786-0 renal
[2] = system: A498 renal
[3] = system: A549 NSCLC
[4] = system: ACHN renal
[5] = system: BT-549 breast
[6] = system: CAKI-1 renal
[7] = system: CCRF-CEM leukemia
[8] = system: COLO 205 colon
[9] = system: DU-145 prostate
[10] = system: EKVX NSCLC
[11] = system: HCC-2998 colon
[12] = system: HCT-116 colon
[13] = system: HCT-15 colon
[14] = system: HL-60(TB) leukemia
[15] = system: HOP-92 NSCLC
[16] = system: HS 578T breast
[17] = system: HT29 colon
[18] = system: IGROV1 ovarian
[19] = system: K-562 leukemia
[20] = system: KM12 colon
[21] = system: M14 melanoma
[22] = system: MALME-3M melanoma
[23] = system: MCF7 breast
[24] = system: MDA-MB-231 breast
[25] = system: MDA-MB-435
[26] = system: MDA-N
[27] = system: MOLT-4 leukemia
[28] = system: NCI-H226 lung
[29] = system: NCI-H23 lung
[30] = system: NCI-H460 lung
[31] = system: NCI-H522 lung
[32] = system: NCI/ADR-RES ovarian
[33] = system: OVCAR-3 ovarian
[34] = system: OVCAR-4 ovarian
[35] = system: OVCAR-5 ovarian
[36] = system: OVCAR-8 ovarian
[37] = system: PC-3 prostate
[38] = system: RPMI-8226 leukemia
[39] = system: RXF 393 renal
[40] = system: SF-268 CNS
[41] = system: SF-295 CNS
[42] = system: SF-539 CNS
[43] = system: SK-MEL-2 melanoma
[44] = system: SK-MEL-28 melanoma
[45] = system: SK-MEL-5 melanoma
[46] = system: SK-OV-3 ovarian
[47] = system: SN12C renal
[48] = system: SNB-19 CNS
[49] = system: SNB-75 CNS
[50] = system: SR leukemia
[51] = system: SW-620 colon
[52] = system: T-47D breast
[53] = system: TK-10 renal
[54] = system: U251 CNS
[55] = system: UACC-257 melanoma
[56] = system: UACC-62 melanoma
[57] = system: UO-31 renal
[58] = system: HOP-62 NSCLC
[59] = system: LOX IMVI melanoma

Cc1c(C)c2c(c(N)c1C#N)C(=O)N(N)C2=O
TGI [1]: > 100 µM
TGI [2]: > 100 µM
TGI [3]: > 100 µM
TGI [4]: > 100 µM
TGI [5]: > 100 µM
TGI [6]: > 100 µM
TGI [7]: > 100 µM
TGI [8]: > 100 µM
TGI [9]: > 100 µM
TGI [10]: > 100 µM
TGI [11]: > 100 µM
TGI [12]: > 100 µM
TGI [13]: > 100 µM
TGI [14]: > 100 µM
TGI [15]: > 100 µM
TGI [16]: > 100 µM
TGI [17]: > 100 µM
TGI [18]: > 100 µM
TGI [19]: > 100 µM
TGI [20]: > 100 µM
TGI [21]: > 100 µM
TGI [22]: > 100 µM
TGI [23]: > 100 µM
TGI [24]: > 100 µM
TGI [25]: > 100 µM
TGI [26]: > 100 µM
TGI [27]: > 100 µM
TGI [28]: > 100 µM
TGI [29]: > 100 µM
TGI [30]: > 100 µM
TGI [31]: > 100 µM
TGI [32]: > 100 µM
TGI [33]: > 100 µM
TGI [34]: > 100 µM
TGI [35]: > 100 µM
TGI [36]: > 100 µM
TGI [37]: > 100 µM
TGI [38]: > 100 µM
TGI [39]: > 100 µM
TGI [40]: > 100 µM
TGI [41]: > 100 µM
TGI [42]: > 100 µM
TGI [43]: > 100 µM
TGI [44]: > 100 µM
TGI [45]: > 100 µM
TGI [46]: > 100 µM
TGI [47]: > 100 µM
TGI [48]: > 100 µM
TGI [49]: > 100 µM
TGI [50]: > 100 µM
TGI [51]: > 100 µM
TGI [52]: > 100 µM
TGI [53]: > 100 µM
TGI [54]: > 100 µM
TGI [55]: > 100 µM
TGI [56]: > 100 µM
TGI [57]: > 100 µM

O=C(O)CSC(CC(=O)c1ccc(Cl)cc1)c1ccc(Cl)cc1 (stereo not drawn)
TGI [1]: > 100 µM
TGI [2]: > 100 µM
TGI [3]: > 100 µM
TGI [4]: > 100 µM
TGI [5]: 80.7 µM
TGI [6]: > 100 µM
TGI [7]: 36.3 µM
TGI [8]: > 100 µM
TGI [9]: > 100 µM
TGI [10]: > 100 µM
TGI [12]: 59.7 µM
TGI [13]: > 100 µM
TGI [14]: 7.45 µM
TGI [58]: 97.1 µM
TGI [15]: 73.2 µM
TGI [16]: > 100 µM
TGI [17]: > 100 µM
TGI [18]: 54.5 µM
TGI [19]: > 100 µM
TGI [20]: 27.6 µM
TGI [59]: 40.1 µM
TGI [21]: > 100 µM
TGI [23]: > 100 µM
TGI [24]: > 100 µM
TGI [25]: > 100 µM
TGI [26]: > 100 µM
TGI [27]: 27 µM
TGI [29]: > 100 µM
TGI [30]: > 100 µM
TGI [31]: 45.3 µM
TGI [32]: > 100 µM
TGI [33]: 50 µM
TGI [34]: > 100 µM
TGI [35]: > 100 µM
TGI [36]: 57 µM
TGI [37]: > 100 µM
TGI [38]: 61.2 µM
TGI [40]: 79 µM
TGI [41]: > 100 µM
TGI [42]: > 100 µM
TGI [43]: > 100 µM
TGI [45]: > 100 µM
TGI [46]: 97.9 µM
TGI [47]: > 100 µM
TGI [48]: > 100 µM
TGI [49]: > 100 µM
TGI [50]: 7.37 µM
TGI [51]: > 100 µM
TGI [52]: 98.4 µM
TGI [53]: > 100 µM
TGI [54]: > 100 µM
TGI [55]: 53.3 µM
TGI [56]: > 100 µM
TGI [57]: > 100 µM

CCc1nc(N)c2nc(-c3cccs3)oc2n1
TGI [1]: > 100 µM
TGI [3]: > 100 µM
TGI [4]: > 100 µM
TGI [5]: > 100 µM
TGI [6]: > 100 µM
TGI [7]: > 100 µM
TGI [8]: > 100 µM
TGI [9]: > 100 µM
TGI [10]: > 100 µM
TGI [11]: > 100 µM
TGI [12]: > 100 µM
TGI [13]: > 100 µM
TGI [14]: > 100 µM
TGI [58]: > 100 µM
TGI [15]: > 100 µM
TGI [16]: > 100 µM
TGI [17]: > 100 µM
TGI [18]: > 100 µM
TGI [19]: > 100 µM
TGI [20]: > 100 µM
TGI [59]: > 100 µM
TGI [21]: > 100 µM
TGI [23]: > 100 µM
TGI [24]: > 100 µM
TGI [25]: > 100 µM
TGI [26]: > 100 µM
TGI [27]: > 100 µM
TGI [28]: > 100 µM
TGI [29]: > 100 µM
TGI [30]: > 100 µM
TGI [31]: > 100 µM
TGI [32]: > 100 µM
TGI [33]: > 100 µM
TGI [35]: > 100 µM
TGI [36]: > 100 µM
TGI [37]: > 100 µM
TGI [38]: > 100 µM
TGI [39]: > 100 µM
TGI [40]: > 100 µM
TGI [41]: > 100 µM
TGI [42]: > 100 µM
TGI [43]: > 100 µM
TGI [44]: > 100 µM
TGI [45]: > 100 µM
TGI [47]: > 100 µM
TGI [48]: > 100 µM
TGI [49]: > 100 µM
TGI [50]: > 100 µM
TGI [51]: > 100 µM
TGI [52]: > 100 µM
TGI [53]: > 100 µM
TGI [54]: > 100 µM
TGI [55]: > 100 µM
TGI [56]: > 100 µM
TGI [57]: > 100 µM

O=C1[C@@H]2[C@@H](CN3CN(c4ccccc4)N=C(c4ccccc4)[C@@]23c2ccccc2)C(=O)N1c1ccccc1
TGI [1]: 5.56 µM
TGI [2]: 36.6 µM
TGI [3]: 19.7 µM
TGI [4]: 3.69 µM
TGI [5]: 13.2 µM
TGI [6]: 2.45 µM
TGI [8]: 3.83 µM
TGI [9]: 24.7 µM
TGI [10]: 11 µM
TGI [11]: > 100 µM
TGI [12]: 31.8 µM
TGI [13]: 5.25 µM
TGI [14]: 6.33 µM
TGI [58]: 30 µM
TGI [15]: 3.86 µM
TGI [16]: > 65.8 µM
TGI [17]: 6.22 µM
TGI [18]: 29.5 µM
TGI [19]: > 25.4 µM
TGI [20]: > 75.5 µM
TGI [59]: 3.3 µM
TGI [21]: 9.73 µM
TGI [22]: 3.57 µM
TGI [23]: 4.04 µM
TGI [24]: 16.6 µM
TGI [25]: 23.2 µM
TGI [26]: 20.1 µM
TGI [27]: > 100 µM
TGI [28]: 8.87 µM
TGI [29]: 23.6 µM
TGI [30]: 50.4 µM
TGI [31]: 1.13 µM
TGI [32]: 49.2 µM
TGI [33]: 21.2 µM
TGI [34]: > 23.8 µM
TGI [35]: 10.4 µM
TGI [36]: 13.9 µM
TGI [37]: 27.1 µM
TGI [38]: 12.4 µM
TGI [39]: 9.65 µM
TGI [40]: 47.1 µM
TGI [41]: 30.2 µM
TGI [43]: 40.3 µM
TGI [44]: 26 µM
TGI [45]: 32.6 µM
TGI [46]: 27.7 µM
TGI [47]: 18.4 µM
TGI [48]: 36.8 µM
TGI [49]: 34.9 µM
TGI [50]: > 100 µM
TGI [51]: 3.84 µM
TGI [52]: 8.04 µM
TGI [53]: 3.13 µM
TGI [54]: > 65.6 µM
TGI [55]: 29.1 µM
TGI [56]: 20.1 µM
TGI [57]: 3.29 µM

Reference: PubChem BioAssay (NCI)
